Read-outs that look alike come from different tables or passages of the source.
Experiments:
SynGUN4 [1] = target: T1, SynGUN4 (Synechocystis sp. PCC 6803, UniProt P72583); experiment: tryptophan fluorescence quenching; format: binding
T1 construct: gene sll0558; full length, residues 1-233; E. coli BL21(DE3)

SynGUN4 [2] = target: T2, SynGUN4 (Synechocystis sp. PCC 6803, UniProt P72583, A219G); experiment: tryptophan fluorescence quenching; format: binding; details: read-out: dissociation constant
T2 construct: gene sll0558; full length, residues 1-233; E. coli BL21(DE3)
T2 sequence (P72583 whole entry A219G, the tested form may be a part): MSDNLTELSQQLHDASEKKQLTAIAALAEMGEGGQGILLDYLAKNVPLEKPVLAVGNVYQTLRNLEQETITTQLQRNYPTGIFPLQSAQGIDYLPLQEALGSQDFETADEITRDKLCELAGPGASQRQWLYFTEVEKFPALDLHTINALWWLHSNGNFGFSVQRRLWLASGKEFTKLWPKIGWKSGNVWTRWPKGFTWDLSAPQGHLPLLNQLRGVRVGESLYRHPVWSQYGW
From the text: (§1) tryptophan fluorescence quenching on SynGUN4

SynGUN4 [3] = target: T3, SynGUN4 (Synechocystis sp. PCC 6803, UniProt P72583, L222A); experiment: tryptophan fluorescence quenching; format: binding; details: read-out: dissociation constant
T3 construct: gene sll0558; full length, residues 1-233; E. coli BL21(DE3)
T3 sequence (P72583 whole entry L222A, the tested form may be a part): as the sequence (P72583 whole entry A219G, the tested form may be a part) above, with G219A, L222A counted along it
From the text: as §1

SynGUN4 [4] = target: T4, SynGUN4 (Synechocystis sp. PCC 6803, UniProt P72583, R113A); experiment: tryptophan fluorescence quenching; format: binding; details: read-out: dissociation constant
T4 construct: gene sll0558; full length, residues 1-233; E. coli BL21(DE3)
T4 sequence (P72583 whole entry R113A, the tested form may be a part): as the sequence (P72583 whole entry A219G, the tested form may be a part) above, with R113A, G219A counted along it
From the text: as §1

SynGUN4 [5] = target: T5, SynGUN4 (Synechocystis sp. PCC 6803, UniProt P72583, R214A); experiment: tryptophan fluorescence quenching; format: binding; details: read-out: dissociation constant
T5 construct: gene sll0558; full length, residues 1-233; E. coli BL21(DE3)
T5 sequence (P72583 whole entry R214A, the tested form may be a part): as the sequence (P72583 whole entry A219G, the tested form may be a part) above, with R214A, G219A counted along it
From the text: as §1

[6] = substrate: CC1=C(CCC(=O)O)c2cc3nc(cc4[nH]c(cc4C)cc4[nH]c(cc1n2)cc4C)C(C)=C3CCC(=O)O; experiment: Mg-Deutero formation by fluorescence; format: biochemical, Synechocystis sp. PCC 6803; details: no SynGUN4, 200 nM ChlH (methods: 0.1 μM ChlH), 20 mM MgCl2, 5 mM ATP, 50 mM MOPS-KOH pH 7.7, 1 mM DTT, 34 °C

T1 sequence (P72583 whole entry, the tested form may be a part): as the sequence (P72583 whole entry A219G, the tested form may be a part) above, with G219A counted along it

C=CC1=C(C)C2=NC1=Cc1c(C)c(C=C)c3[n]1[Co+][n]1c(c(C)c(CCC(=O)O)c1=CC1=NC(=C3)C(C)=C1CCC(=O)O)=C2 [Co-Proto]
Kd (SynGUN4 [1]; 50 mM MOPS-KOH pH 7.7, 150 mM NaCl, 1 mM DTT, one-site fit): 2.67 ± 0.856 µM

CC1=C(CCC(=O)O)c2cc3nc(cc4[nH]c(cc4C)cc4[nH]c(cc1n2)cc4C)C(C)=C3CCC(=O)O [Deutero]
Kd (SynGUN4 [2]): 1.56 ± 0.459 µM
Kd (SynGUN4 [3]): 6.61 ± 1.02 µM
Kd (SynGUN4 [4]): 7.83 ± 1.99 µM
Kd (SynGUN4 [5]): 10.9 ± 4.06 µM
Kd (SynGUN4 [1]): 0.865 ± 0.146 µM

B1: Synechocystis Mg-chelatase (ChlH, ChlD, ChlI) (Synechocystis sp. PCC 6803 substr. Kazusa) (protein)
chain: MFTNVKSTIRRVDPEALNGRQLLKVVYVVLESQYQSALSAAVRNINRTNSSLAIQLTGYLIEELRDPENYANFKHDVSEANLFIASLIFIEDLADKVVEAVTPYRDNLDAAIVFPSMPQVMRLNKMGSFSMAQLGQSKSAIAQFMKKRKENSSGAGFQDAMLKLLRTLPTVLKYLPVEKAQDARNFMLSFQYWLGGSQENLENFLLMLTDKYVYPDLGLDKLVNYQEPVVYPDMGIWHPLSMQMFENVKDYLEWYNQRPDISEDLKDPLAPCIGLIMQRTHLVTGDDAHYVGMVQELEAMGARVICVFSGGLDFSKPVNEYFWDKSVNGVEPLPIVDAVVSLTGFALVGGPARQDHPRAIESLKKLNRPYMCALPLVFQTTEEWEASDLGLHPIQVALQIAIPELDGAIEPIILSGRDGSTGRAIALQDRLEAIAQRAMKWANLRKKPKLDKKVAITVFSFPPDKGNVGTAAYLDVFGSIYEVMKGLQGNGYDVQDLPGSAKELMEAVIHDAQAQYNSPELNIAHRMSVEQYERLTPYSVRLEENWGKPPGHLNSDGQNLLIYGKEFGNVFIGVQPTFGYEGDPMRLLFSRSASPHHGFAAYYTYLNHIWKADAVLHFGTHGSLEFMPGKQMGMSGECYPDNLIGTIPNLYYYAANNPSEATIAKRRGYASTISYLTPPAENAGLYKGLQELNELIGSYQTLKDSGRGIQIVNTIMDQARICNLDQDVNLPDINAEEMDQGQRDTIVGSVYRKLMEIESRLLPCGLHVIGQPPSAEEAIATLVNIASLDREDEGIWALPTLIAESIGRNMEEIYRNSDKGILADVELLQDITLATRAAVAALVQEQINADGRVSFVSKLNFFKIGKKAPWVKSLCDSGYPNVNEEKLKPLFEYLEFCLEQVCADNEFGGLLQALEGEYVLPGPGGDPIRNPNVLPTGKNIHALDPQSIPTLAAVQSAKVVVDRLLERQRAENGGNYPETIASVLWGTDNIKTYGESLAQIMWMVGAKPVPDALGRVNKIELVPLEELGRPRIDVVVNCSGVFRDLFINQMNLLDQAVKLAAEADEPLEMNFVRKHALEQAEEMGIGVREAATRIFSNASGSYSSNVNLAVENSSWEDESELQEMYLKRKSFAFNSDNPGMMDQNRDMFERALKTADATFQNLDSSEISLTDVSHYFDSDPTKLISTLRDDGKAPAAYIADTTTANAQVRTLSETVRLDARTKLLNPKWYEGMLSHGYEGVRELSKRLVNTMGWSATAGAVDNWVYEDANSTFIKDEEMCKRLMDLNPNSFRRMVSTLLEVNGRGYWETSDENLERLQELYQEVEDRIEGVE
notes: with Magnesium-chelatase subunit ChlD; Magnesium-chelatase subunit ChlI
Km [6]: 7.46 ± 3.24 µM
